Measured values published in patent publication US9447028B2, “Therapeutic aryl-amido-aryl compounds and their use” (King's College London, priority 2009, dated 2016).

Columns and labels:
Format in all cases: cell-based
[1] = target: T1, RARα (Homo sapiens, UniProt P10276); experiment: Transactivation assay for RAR alpha (gal4-RAR fusion, luciferase reporter, COS-7 cells); conditions: for RARα/RARβ ratio (*): fold-selectivity for RARα over RARβ; for RARα activity ratio: ratio of test compound EC50 to that of atRA on the same plate
T1 construct: gal4 (fusion partner); expressed in transfected cells; host or cells: COS-7
T1 sequence (P10276 183-417 limits assumed): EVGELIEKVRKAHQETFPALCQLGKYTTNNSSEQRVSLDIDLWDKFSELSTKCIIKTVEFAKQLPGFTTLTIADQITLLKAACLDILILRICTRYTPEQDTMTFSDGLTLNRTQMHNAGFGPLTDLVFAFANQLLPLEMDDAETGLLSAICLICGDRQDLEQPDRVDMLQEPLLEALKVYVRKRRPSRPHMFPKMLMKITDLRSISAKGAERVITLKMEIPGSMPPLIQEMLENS
Method in brief: (§1)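 COS-7 cells co-transfected with gal4–RAR ligand-binding-domain fusion and pFR-luc reporter, then treated with compound in phenol-red-free DMEM (1% DMSO) for about one day. Luciferase read after lysis with BrightGlo; EC50 values from replicate experiments given as a ratio of means.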

[2] = target: T2, RARβ (Homo sapiens, UniProt P10826); experiment: Transactivation assay for RAR beta (gal4-RAR fusion, luciferase reporter, COS-7 cells); conditions: ratio of test compound EC50 to that of atRA; inactive = no agonist action at the highest concentration tested
T2 construct: gal4 (fusion partner); expressed in transfected cells; host or cells: COS-7
T2 sequence (P10826 183-417 limits assumed): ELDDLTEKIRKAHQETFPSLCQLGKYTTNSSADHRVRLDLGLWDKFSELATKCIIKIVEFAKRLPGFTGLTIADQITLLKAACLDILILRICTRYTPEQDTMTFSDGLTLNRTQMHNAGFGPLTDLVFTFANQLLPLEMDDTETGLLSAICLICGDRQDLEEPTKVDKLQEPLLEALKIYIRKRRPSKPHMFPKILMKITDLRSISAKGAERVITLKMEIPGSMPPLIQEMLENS
Method in brief: as §1

[3] = target: T3, RARγ (Homo sapiens, UniProt P13631); experiment: Transactivation assay for RAR gamma (gal4-RAR fusion, luciferase reporter, COS-7 cells); conditions: ratio of test compound EC50 to that of atRA; inactive = no agonist action at the highest concentration tested
T3 construct: gal4 (fusion partner); expressed in transfected cells; host or cells: COS-7
T3 sequence (P13631 185-419 limits assumed): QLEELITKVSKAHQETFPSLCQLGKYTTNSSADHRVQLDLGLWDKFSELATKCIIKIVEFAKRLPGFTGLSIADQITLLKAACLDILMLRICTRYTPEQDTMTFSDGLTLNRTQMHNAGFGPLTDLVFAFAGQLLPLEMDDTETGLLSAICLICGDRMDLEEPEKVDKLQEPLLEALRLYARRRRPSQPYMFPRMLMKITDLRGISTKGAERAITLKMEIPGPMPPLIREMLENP
Method in brief: as §1

Structure (SMILES) | RARα/RARβ ratio (*) [1] | RARα activity ratio [1] | RARβ activity ratio [2] | RARγ activity ratio [3] | Improvement (RARα activity ratio) ([1]; compared with XXX-03) | Improvement (RARα/RARβ ratio) ([1]; compared with XXX-03)
CCOc1c(OC(C)C)cc(C(=O)Nc2ccc(C(=O)O)c(C)c2)cc1OC(C)C [AAA-061, 4-(4-Ethoxy-3,5-diisopropoxybenzamido)-2-methylbenzoic acid] | 118 | 44 | 5200 | 1531 |  | 
O=C(O)c1ccc(NC(=O)c2cc(Cl)c(OCc3ccncc3)c(Cl)c2)cc1 [AAA-012, 4-(3,5-Dichloro-4-(pyridin-4-ylmethoxy)benzamido)benzoic acid] | 2.4 | 533 | 1300 | inactive |  | 
CCOc1c(Cl)cc(C(=O)Nc2ccc(C(=O)O)c(C)c2)cc1OC1CCC1 [AAA-096, 4-(3-Chloro-5-(cyclobutoxy)-4-ethoxybenzamido)-2-methylbenzoic acid] | 67 | 3.2 | 215 | 7895 |  | 
CCOc1c(F)cc(C(=O)Nc2ccc(C(=O)O)cc2)cc1F [AAA-073, 4-(4-Ethoxy-3,5-difluorobenzamido)benzoic acid] | 6 | 19 | 117 | 220 |  | 
CCOc1c(Cl)cc(C(=O)Nc2ccc(C(=O)O)c(O)c2)cc1Cl [AAA-057, 4-(3,5-Dichloro-4-ethoxybenzamido)-2-hydroxybenzoic acid] | 37 | 33 | 1226 | 4920 |  | 
CCOc1c(Cl)cc(C(=O)Nc2ccc(C(=O)O)cc2)cc1OC [AAA-084, 4-(3-Chloro-4-ethoxy-5-methoxybenzamido)benzoic acid] | 234 | 26 | 6087 | >1400 |  | 
CCOc1c(OC2CCCC2)cc(C(=O)Nc2ccc(C(=O)O)cc2)cc1OC1CCCC1 [AAA-058, 4-(3,5-Bis(cyclopentyloxy)-4-ethoxybenzamido)benzoic acid] | 145 | 29 | 4200 | 550 |  | 
O=C(O)c1ccc(NC(=O)c2cc(Cl)c(OC3CCCC3)c(OC3CCCC3)c2)cc1 [AAA-044, 4-(3-Chloro-4,5-bis(cyclopentyloxy)benzamido)benzoic acid] | 32 | 1.7 | 55 | 571 |  | 
CC(C)(C)Oc1cc(C(=O)Nc2ccc(C(=O)O)cc2)cc(OC(C)(C)C)c1OC(C)(C)C [AAA-060, 4-(3,4,5-Tri-tert-butoxybenzamido)benzoic acid] | 50 | 45 | 2267 | 30 |  | 
CCOc1c(Cl)cc(C(=O)Nc2ccc(C(=O)O)c(C)c2)cc1OC [AAA-085, 4-(3-Chloro-4-ethoxy-5-methoxybenzamido)-2-methylbenzoic acid] | 210 | 33 | 6923 | >8300 |  | 
CCOc1c(Cl)cc(C(=O)Nc2ccc(C(=O)O)cc2)cc1OCC1CC1 [AAA-089, 4-(3-Chloro-5-(cyclopropylmethoxy)-4-ethoxybenzamido)benzoic acid] | 392 | 1.3 | 510 | 2647 |  | 
CCOc1c(Cl)cc(C(=O)Nc2ccc(C(=O)O)nc2)cc1Cl [AAA-026, 5-(3,5-Dichloro-4-ethoxybenzamido)picolinic acid] | 27.3 | 180 | 4920 | inactive |  | 
CC(C)Oc1c(Cl)cc(C(=O)Nc2ccc(C(=O)O)cc2)cc1C(F)(F)F [AAA-034, 4-(3-Chloro-4-isopropoxy-5-(trifluoromethyl)benzamido)benzoic acid] | 122 | 2 | 244 | 1250 |  | 
CCOc1c(Cl)cc(NC(=O)c2ccc(C(=O)O)cc2)cc1Cl [AAA-013, 4-(3,5-Dichloro-4-ethoxyphenylcarbamoyl)benzoic acid] | 11.8 | 30 | 355 | inactive |  | 
Cc1cc(NC(=O)c2cc(Cl)c(OC(C)(C)C)c(Cl)c2)ccc1C(=O)O [AAA-056, 4-(4-tert-Butoxy-3,5-dichlorobenzamido)-2-methylbenzoic acid] | >250 | 3.1 | >770 | 22 |  | 
COc1c(Cl)cc(C(=O)Nc2ccc(C(=O)O)c(C)c2)cc1Cl [AAA-055, 4-(3,5-Dichloro-4-methoxybenzamido)-2-methylbenzoic acid] | 107 | 18 | 1926 | 69000 |  | 
CCOc1c(Br)cc(C(=O)Nc2ccc(C(=O)O)c(C)c2)cc1Br [AAA-053, 4-(3,5-Dibromo-4-ethoxybenzamido)-2-methylbenzoic acid] | 336 | 4.2 | 1410 | 414 |  | 
CCOc1cc(C(=O)Nc2ccc(C(=O)O)cc2)cc(OC(CC)CC)c1Cl [AAA-114, 4-(4-Chloro-3-ethoxy-5-(pentan-3-yloxy)benzamido)benzoic acid] | 23 | 4.4 | 100 | 22759 |  | 
Cc1cc(NC(=O)c2cc(Cl)c(OC(C)(C)C)c(C(F)(F)F)c2)ccc1C(=O)O [AAA-038, 4-(4-(tert-Butoxy)-3-chloro-5-(trifluoromethyl)benzamido)-2-methylbenzoic acid] | 98 | 0.50 | 49 | 0.36 |  | 
COc1cc(C(=O)Nc2ccc(C(=O)O)cc2)cc(OC(C)C)c1Cl [AAA-118, 4-(4-Chloro-3-isopropoxy-5-methoxybenzamido)benzoic acid] | 47 | 36 | 1700 | 933333 |  | 
CCOc1c(Cl)cc(C(=O)Nc2ccc(C(=O)O)cc2)cc1Cl [AAA-029, 4-(3,5-Dichloro-4-ethoxy-benzoylamino)-benzoic acid] |  |  | 1920 | inactive | ~3.8-fold | ~11-fold
CCOc1c(Br)cc(C(=O)Nc2ccc(C(=O)O)c(C)c2)cc1C(F)(F)F [AAA-071, 4-(3-Bromo-4-ethoxy-5-(trifluoromethyl)benzamido)-2-methylbenzoic acid] | 31 | 5.2 | 160 | 13333 |  | 
CC(C)Oc1cc(C(=O)Nc2ccc(C(=O)O)cc2)cc(OC(C)C)c1OC(C)C [AAA-059, 4-(3,4,5-Triisopropoxybenzamido)benzoic acid] | 96 | 27 | 2600 | 225 |  | 
CCOc1c(Cl)cc(C(=O)Nc2ccc(C(=O)O)c(F)c2)cc1C(F)(F)F [AAA-068, 4-(3-Chloro-4-ethoxy-5-(trifluoromethyl)benzamido)-2-fluorobenzoic acid] | 140 | 7 | 976 | 60833 |  | 
O=C(Nc1ccc(C(=O)O)c(O)c1)c1cc(Cl)c(OC2CCC2)c(OC2CCC2)c1 [AAA-094, 4-(3-Chloro-4,5-di(cyclobutyloxy)benzamido)-2-hydroxybenzoic acid] | 2852 | 0.23 | 656 | 20000 |  | 
O=C(O)c1ccc(NC(=O)c2cc(Cl)c(OC3CCC3)c(C(F)(F)F)c2)cc1 [AAA-036, 4-(3-Chloro-4-cyclobutoxy-5-(trifluoromethyl)benzamido)benzoic acid] | 31 | 7.0 | 215 | 2438 |  | 
